The values below are quoted from earlier work in PubChem BioAssay AID1259409 (Chemical Carcinogenesis Research Information System (CCRIS), 2018).

In the data set the test system is rodent chemically induced tumor inhibition, incidence and multiplicity. Briefly: CCRIS tumor inhibitor studies. The following applies: Carcinogen: N-NITROSOBIS(2-HYDROXYPROPYL)AMINE, 53609-64-6, Dose [Inhibitor]: 0, Route [Inhibitor]: INTRAPERITONEAL, Species: HAMSTER, Strain/Sex: SYRIAN/MALE, Dose [Carcinogen]: 500 MG/KG IN 0.9% SALINE 1/WK FOR 5 WK, Promoter: NONE USED. An excerpt:
The CCRIS database contains chemical records with carcinogenicity, mutagenicity, tumor promotion, and tumor inhibition test results. It was developed by the National Cancer Institute (NCI). Data are derived from studies cited in primary journals, current awareness tools, NCI reports, and other sources. Test results have been reviewed by experts in carcinogenesis and mutagenesis.
CCRIS provides historical information from the years 1985 - 2011. It is no longer updated.
This is an archive assay for CCRIS tumor inhibitor studies.

With `NC(=O)c1cccc(N)c1`, the outcome runs as follows: (300 MG/KG 30 MIN AFTER EACH CARCINOGEN DOSE (STUDY DURATION: 35 WK), Target Tissue: Type of Lesion: BILE DUCT: CHOLANGIOCARCINOMA) 0%, 7%; (300 MG/KG 30 MIN AFTER EACH CARCINOGEN DOSE (STUDY DURATION: 35 WK), Target Tissue: Type of Lesion: LIVER: HEPATOCELLULAR CARCINOMA) 0%, 7%; (300 MG/KG 30 MIN AFTER EACH CARCINOGEN DOSE (STUDY DURATION: 35 WK), Target Tissue: Type of Lesion: LUNG: ADENOMA) 0%, 7%; (600 MG/KG 30 MIN AFTER EACH CARCINOGEN DOSE (STUDY DURATION: 35 WK), Target Tissue: Type of Lesion: LIVER: HEPATOCELLULAR CARCINOMA) 0%, 5%; (600 MG/KG 30 MIN AFTER EACH CARCINOGEN DOSE (STUDY DURATION: 35 WK), Target Tissue: Type of Lesion: LUNG: ADENOMA) 0%, 5%. In addition, the “tumour outcome (control, treated, inhibition, significance)” value is, setting by setting: (300 MG/KG 30 MIN AFTER EACH CARCINOGEN DOSE (STUDY DURATION: 35 WK), Target Tissue: Type of Lesion: LUNG: ADENOCARCINOMA) 8%, 0%, 100%, not calculated; (300 MG/KG 30 MIN AFTER EACH CARCINOGEN DOSE (STUDY DURATION: 35 WK), Target Tissue: Type of Lesion: PANCREAS: CARCINOMA) 39%, 40%, -3%, not calculated; (600 MG/KG 30 MIN AFTER EACH CARCINOGEN DOSE (STUDY DURATION: 35 WK), Target Tissue: Type of Lesion: LUNG: ADENOCARCINOMA) 8%, 0%, 100%, not calculated; (600 MG/KG 30 MIN AFTER EACH CARCINOGEN DOSE (STUDY DURATION: 35 WK), Target Tissue: Type of Lesion: PANCREAS: CARCINOMA) 39%, 25%, 36%, not calculated.
